In patent US7732491B2, “Treatment of breast cancer with a PARP inhibitor alone or in combination with anti-tumor agents” (priority 2007, dated 2010):
Each block holds one compound with its values, some of them ahead of it.

Columns and labels:
[1] = test system: MDA-MB-468 triple negative breast adenocarcinoma cell line; assay: Cell cycle analysis (PI staining, flow cytometry); assay type: cell-based, human; design: G1 / S / G2/M: unit not given here
[2] = test system: MDA-MB-468 triple negative breast adenocarcinoma cell line; assay: Vital cells, % control; assay type: cell-based, human
Experimental: (§1) Breast cancer cells are obtained from ATCC and cultured in Dulbecco Modified Eagle Medium with 10% fetal bovine serum. Cells are plated at 10^5 cells per P100 cell culture dish or at 10^4 cells per P60 cell culture dish in the presence of different concentrations compounds or DMSO control. Following treatment, the number of attached cells is measured using Coulter counter, and by staining with 1% methylene blue. Methylene blue is dissolved in 50%-50% mixture of Methanol and water. Cells are plated in 24- or 96-well plates and treated as planned, media are aspirated, cells are washed with PBS, fixed in methanol for 5-10 min, methanol is aspirated and plates are allowed to dry completely. Methylene blue solution is added to wells and plates are incubated for 5 min. Staining solution is removed and plates are washed with dH2O until washes are no longer blue. After plates are completely dry, a small amount of 1N HCl is added to each well to extract the methylene blue. The OD readout at 600 nm and a calibration curve are used to determine cell number.
After the addition of drugs and incubation, cells are trypsinized and aliquots of the samples are taken for counting and PI (Propidium Iodide) exclusion assay. One part of the cells is centrifuged and resuspended in 0.5 ml ice-cold PBS containing 5 μg/ml of PI. The other part of the cells is fixed in ice-cold 70% ethanol and stored in a freezer overnight. For cell cycle analysis, cells are stained with propidium iodide (PI) by standard procedures. Cellular DNA content is determined by flow cytometry using BD LSRII FACS, and the percentages of cells in G1, S or G2/M are determined using ModFit software.
as §1, with “min.” for “min,”
PI exclusion, cell cycle, TUNEL assays, and BrdU labeling assays are performed as described above in Example 2.

[3] = prepared as directed (10 mg/ml); room temperature; cited from earlier work
advanced breast tumors = assay: Phase 1b open-label dose escalation study of BA with chemotherapeutic regimens; assay type: in vivo, human
Lipophilicity = assay type: physicochemical
Text: (§2) The person skilled in the art will recognize that BA may be administered in any pharmaceutically acceptable form. e.g. as a pharmaceutically acceptable salt, solvate, or complex. Additionally, as BA is capable of tautomerizing in solution, the tautomeric form of BA is intended to be embraced by the term BA (or the equivalent 4-iodo-3-nitrobenzamide), along with the salts, solvates or complexes. In some embodiments, BA may be administered in combination with a cyclodextrin, such as hydroxypropylbetacyclodextrin.

PARP = target: T1, PARP (Homo sapiens, UniProt P09874); assay: PARP inhibition in peripheral mononuclear blood cells (PMBCs) from patients; assay type: in vivo
T1 construct: endogenous in cells; host or cells: peripheral blood mononuclear cells (PBMCs) from patients
Experimental: The functional activity of PARP before and after treatment of BA will be determined using a PARP activity assay in Peripheral Blood Mononuclear Cells (PBMCs). PBMCs will be prepared from 5 mL blood samples according to procedures described in detail in the study manual and PARP activity/inhibition will be measured.

[4] = in vivo; cited from earlier work
[5] = Tissue distribution / blood-brain barrier; conditions: in vivo
Text: as §2
While not wishing to be bound by any particular theory, it is believed that BA achieves its anti-neoplastic effect by inhibiting the function of PARP. In some embodiments, BA can be used in the treatment of triple negative metastatic breast tumors. In some embodiments, BA can be used in the treatment of breast tumors in which at least one of ER, PR, and Her2 is negative. In some embodiments, BA can be used in the treatment of breast tumors in which at least two of ER, PR, and Her2 is negative, e.g. ER-negative, PR-negative, and Her-2 positive; or ER-positive, PR-negative, and Her-2 negative; or ER-negative, PR-positive, and Her-2 negative.

[6] = test system: panel of 63 other kinases, including native c-Abl; conditions: cited from earlier work
Bcr-abl = conditions: read-out: inhibits Bcr-abl phosphorylation, IC50; cited from earlier work

T1 sequence (P09874 whole entry): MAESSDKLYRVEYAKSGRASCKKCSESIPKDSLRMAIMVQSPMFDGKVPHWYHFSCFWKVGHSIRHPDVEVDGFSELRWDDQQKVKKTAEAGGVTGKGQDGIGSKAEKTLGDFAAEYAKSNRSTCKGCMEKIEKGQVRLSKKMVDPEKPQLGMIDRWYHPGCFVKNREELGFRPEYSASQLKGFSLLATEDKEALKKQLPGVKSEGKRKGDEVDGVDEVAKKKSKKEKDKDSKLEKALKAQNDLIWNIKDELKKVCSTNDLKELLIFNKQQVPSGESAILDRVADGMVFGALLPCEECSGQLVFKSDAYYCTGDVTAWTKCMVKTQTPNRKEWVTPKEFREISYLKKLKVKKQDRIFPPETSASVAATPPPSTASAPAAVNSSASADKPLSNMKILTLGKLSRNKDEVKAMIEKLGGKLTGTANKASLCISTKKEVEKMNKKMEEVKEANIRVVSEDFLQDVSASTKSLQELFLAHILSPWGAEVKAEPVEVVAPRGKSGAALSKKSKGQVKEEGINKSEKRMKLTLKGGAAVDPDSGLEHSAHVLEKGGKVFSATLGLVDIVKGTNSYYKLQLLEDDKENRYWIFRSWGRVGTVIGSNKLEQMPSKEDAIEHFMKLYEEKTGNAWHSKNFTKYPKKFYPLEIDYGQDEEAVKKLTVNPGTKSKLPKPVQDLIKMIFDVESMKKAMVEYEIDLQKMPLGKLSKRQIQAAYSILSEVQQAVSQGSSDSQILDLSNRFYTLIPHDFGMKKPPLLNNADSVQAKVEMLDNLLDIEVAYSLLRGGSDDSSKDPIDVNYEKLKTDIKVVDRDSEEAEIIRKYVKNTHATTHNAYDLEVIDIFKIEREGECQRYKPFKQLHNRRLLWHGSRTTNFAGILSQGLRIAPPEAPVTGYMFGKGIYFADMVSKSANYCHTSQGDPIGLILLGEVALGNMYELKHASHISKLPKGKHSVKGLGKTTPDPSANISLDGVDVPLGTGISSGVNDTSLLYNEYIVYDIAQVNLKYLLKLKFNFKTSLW

SMILES: CCc1c2c(nc3ccc(OC(=O)N4CCC(N5CCCCC5)CC4)cc13)-c1cc3c(c(=O)n1C2)COC(=O)[C@]3(O)CC [Irinotecan, reference compound]
G1 ([1]; Irinotecan 5 uM + BA 0 uM): 38.17 | G2/M ([1]; Irinotecan 5 uM + BA 0 uM): 28.05 | S ([1]; Irinotecan 5 uM + BA 0 uM): 33.77 | vital cells, % control ([2]; Irinotecan 5 uM + BA 0 uM): 48.6 % control

SMILES: N.N.O=C([O-])C1(C(=O)[O-])CCC1.[Pt+2] [carboplatin]
stability of carboplatin solutions [3]: eight

lipophilicity (Lipophilicity): very lipophilic | biologically relevant dose that elicits significant and sustained PARP inhibition (PARP; Phase 1b): 2.8 mg/kg
SMILES: NC(=O)c1ccc(I)c([N+](=O)[O-])c1 [BA, 4-iodo-3-nitrobenzamide]
subjects with evidence of stable disease for 2 cycles of treatment or more (advanced breast tumors; BA in combination with chemotherapeutic regimens): Approximately 80% | tolerability of combination of BA with each cytotoxic regimen (advanced breast tumors; with topotecan, gemcitabine, temozolomide, or carboplatin+paclitaxel): well tolerated | effect on cell cycle arrest and antiproliferative effect of gamma irradiation ([1]; 3 gray of gamma irradiation with 100 μM of BA, FIG. 6): potentiates S- and G2/M cell cycle arrest and enhances the antiproliferative effect of gamma irradiation | effect on cell cycle arrest and cytotoxic effects induced by PPP ([1]; BA in combination with PPP): potentiates S- and G2/M cell cycle arrest and enhances cytotoxic effects | effect on cell cycle arrest and cytotoxic effects induced by carboplatin or gemcitabine ([1]; BA in combination with gemcitabine or carboplatin, FIG. 2): potentiates S- and G2/M cell cycle arrest and enhances cytotoxic effects | effect on cell cycle arrest and cytotoxic effects induced by irinotecan ([1]; BA in combination with irinotecan): potentiates S- and G2/M cell cycle arrest and enhances cytotoxic effects | G1 ([1]; Irinotecan 0 uM + BA 50 uM): 65.50 | G2/M ([1]; Irinotecan 0 uM + BA 50 uM): 11.02 | S ([1]; Irinotecan 0 uM + BA 50 uM): 23.48 | G1 ([1]; Irinotecan 0 uM + BA 100 uM): 57.72 | G2/M ([1]; Irinotecan 0 uM + BA 100 uM): 15.34 | S ([1]; Irinotecan 0 uM + BA 100 uM): 26.93 | G1 ([1]; PPP 0 nM + 201 50 uM): 50.20 | G2/M ([1]; PPP 0 nM + 201 50 uM): 15.21 | S ([1]; PPP 0 nM + 201 50 uM): 31.34 | G1 ([1]; PPP 0 nM + 201 100 uM): 40.63 | G2/M ([1]; PPP 0 nM + 201 100 uM): 20.16 | S ([1]; PPP 0 nM + 201 100 uM): 34.52 | PARP inhibition in PBMCs from patients (PARP; after multiple dosing with BA doses of 2.8 mg/kg or higher, FIG. 3): significant and prolonged PARP inhibition | vital cells, % control ([2]; Irinotecan 0 uM + BA 50 uM): 91.5 % control | vital cells, % control ([2]; Irinotecan 0 uM + BA 100 uM): 67.5 % control | Vital Cell % control ([2]; PPP 0 nM + 201 50 uM): 82 % control | Vital Cell % control ([2]; PPP 0 nM + 201 100 uM): 61 % control | blood-brain barrier [4]: cross the blood-brain barrier | tissue distribution [5]: distributes rapidly and widely into tissues, including the brain and cerebrospinal fluid (CSF)

SMILES: NC(=O)c1cccc(-c2cc(Nc3ccc(OC(F)(F)F)cc3)ncn2)c1 [GNF-2]
inhibition of a panel of 63 other kinases, including native c-Abl [6]: does not inhibit | IC50 (Bcr-abl): 267 nM

SMILES: COc1cc([C@@H]2c3cc4c(cc3[C@H](O)[C@H]3COC(=O)[C@@H]23)OCO4)cc(OC)c1OC [PPP, Picropodophyllin, reference compound]
G1 ([1]; PPP 200 nM + 201 0 uM): 51.42 | G2/M ([1]; PPP 200 nM + 201 0 uM): 15.01 | S ([1]; PPP 200 nM + 201 0 uM): 30.22 | G1 ([1]; PPP 400 nM + 201 0 uM): 37.29 | G2/M ([1]; PPP 400 nM + 201 0 uM): 20.17 | S ([1]; PPP 400 nM + 201 0 uM): 25.32 | Vital Cell % control ([2]; PPP 200 nM + 201 0 uM): 89 % control | Vital Cell % control ([2]; PPP 400 nM + 201 0 uM): 60 % control
